The text below walks through data of ChEMBL document CHEMBL1201862, “PubChem BioAssay data set” (2004).

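Cells were grown in 96-well plates and exposed to each compound for 48 hours at five concentrations; endpoints were interpolated linearly between bracketing concentrations, or set to the highest concentration if not reached. GI50 is the concentration that inhibits growth by half.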 Activity calls are given as the source filed them. No stated cut-off is given here; in the data, active = GI50 up to about 1.1 µM and inactive = higher. Bounds are passed on as bounds.

Test systems include A549; ACHN; CAKI-1; COLO 205; EKVX; HL-60; KM12; LOX IMVI; MCF7; MOLT-4; NCI-H226; NCI-H460; OVCAR-3; SF-268; SF-539; SK-MEL-28; SK-MEL-5; SW-620; UACC-257; NCI-H522.
Common to all, as to assay: inhibition of tumour cell growth, NCI panel, 48 h

With `C=C[C@H]1CN2CCc3c([nH]c4c([C@@H]5CCCN5C)c(O)ccc34)[C@@H]2C[C@@H]1C[C@H]1c2[nH]c3ccccc3c2CCN1C`, the GI50 in the assay with A549 is 0.764 µM (active); in the assay on ACHN it was 1.92 µM (inactive); in the assay on CAKI-1, 1.61 µM (inactive); in the assay on COLO 205, 1.26 µM (inactive); in the assay with EKVX it was 1.58 µM (inactive); with HL-60, 0.409 µM (active). The GI50 in the assay on KM12 is 1.41 µM (inactive); with LOX IMVI, 0.179 µM (active); with MCF7 it was 1.75 µM (inactive); with MOLT-4, 0.316 µM (active); with NCI-H226 it was 1.67 µM (inactive); in the assay with NCI-H460 it was 1.49 µM (inactive). Besides, the GI50 in the assay on OVCAR-3 is 1.36 µM (inactive); in the assay with SF-268 it was 1.48 µM (inactive); with SF-539 it was 1.57 µM (inactive); with SK-MEL-28 it was 1.55 µM (inactive); in the assay with SK-MEL-5, 1.66 µM (inactive); in the assay on SW-620 it was 1.23 µM (inactive). In addition, the GI50 in the assay with UACC-257 is 3.18 µM (inactive).
Take `O=C(O)c1nn(-c2ccccc2)nc1-c1nn(-c2ccccc2)nc1C(=O)O`: the GI50 with A549, in the assay with ACHN, with CAKI-1, in the assay with COLO 205, in the assay with EKVX and in the assay with HL-60 was > 100 µM (inactive) each time. Besides, the GI50 in the assay on KM12, in the assay with LOX IMVI, in the assay on MCF7, in the assay on MOLT-4, in the assay with NCI-H226 and with NCI-H460 was > 100 µM (inactive) in each case. For the same molecule, the GI50 in the assay on OVCAR-3, with SF-268, with SF-539, with SK-MEL-28, in the assay with SK-MEL-5 and in the assay on SW-620 was > 100 µM (inactive) in each case. The GI50 in the assay with UACC-257 is > 100 µM (inactive).
With `CCN(CC)C(=S)N/N=C(\C)c1cccc(C)n1`, the GI50 is 0.259 µM (active) in the assay with A549; 0.0184 µM (active) in the assay on ACHN; 0.31 µM (active) in the assay on CAKI-1; < 0.01 µM (active) in the assay on COLO 205; < 0.01 µM (active) in the assay with EKVX; < 0.01 µM (active) in the assay on HL-60. Further, the GI50 in the assay on KM12 was 0.201 µM (active); in the assay with LOX IMVI it was < 0.01 µM (active); in the assay on MCF7 it was < 0.01 µM (active); in the assay with MOLT-4, < 0.01 µM (active); with NCI-H522, 0.0276 µM (active); with OVCAR-3, < 0.01 µM (active). The GI50 is 0.0593 µM (active) in the assay with SF-268; 0.239 µM (active) with SF-539; 0.308 µM (active) in the assay with SK-MEL-28; 0.0593 µM (active) in the assay with SK-MEL-5; < 0.01 µM (active) in the assay with UACC-257.
As for `O=C1NC(=O)/C(=C/c2ccc(S(=O)(=O)N/N=C/c3ccccc3)cc2)N1`, the GI50 in the assay on A549, in the assay on ACHN, in the assay on CAKI-1, in the assay on COLO 205, with EKVX and in the assay with HL-60 was > 100 µM (inactive) throughout. Besides, the GI50 in the assay on KM12, in the assay on LOX IMVI, with MCF7, in the assay with MOLT-4, with NCI-H226 and in the assay with OVCAR-3 was > 100 µM (inactive) each time. For the same molecule, the GI50 in the assay on SF-268, with SK-MEL-28, with SK-MEL-5, in the assay with SW-620 and in the assay on UACC-257 was > 100 µM (inactive) throughout.
Regarding `CC(=O)NC(C)(C)C1CC=C(C)CC1` (stereo not drawn), the GI50 with A549, with ACHN, in the assay with CAKI-1, with COLO 205, with EKVX and in the assay on HL-60 was > 100 µM (inactive) in each case. Moreover, the GI50 with KM12, in the assay on LOX IMVI, in the assay with MCF7, in the assay on MOLT-4, with NCI-H226 and with NCI-H460 was > 100 µM (inactive) each time. Besides, the GI50 in the assay on OVCAR-3, in the assay on SF-268, with SF-539, in the assay on SK-MEL-28, in the assay with SK-MEL-5 and in the assay with SW-620 was > 100 µM (inactive) each time. In the assay with UACC-257, the GI50 was > 100 µM (inactive).
Take `CCSc1ncnc2c(C3OC(CO)C(O)C3O)nsc12` (stereo not drawn): the GI50 in the assay with A549, in the assay with CAKI-1, in the assay with COLO 205, in the assay on EKVX, with HL-60 and in the assay with LOX IMVI was > 100 µM (inactive) throughout. In addition, the GI50 with MCF7, in the assay with MOLT-4, in the assay with NCI-H226, in the assay on OVCAR-3, in the assay with SF-268 and in the assay with SF-539 was > 100 µM (inactive) each time. The GI50 in the assay on SK-MEL-28, in the assay with SK-MEL-5 and in the assay with SW-620 was > 100 µM (inactive) throughout.
`CC(=O)O[C@H]1[C@H](OC(=O)CC(C)(O)CC(=O)O)C[C@]2(C)C3=C(CCC2C1(C)C)[C@]1(C)CC[C@H]([C@H]2CC[C@H](C(C)(C)O)OC2O)[C@@]1(C)[C@@H](O)C3` (stereo partly drawn): the GI50 is 32.4 µM (inactive) with A549; 15.8 µM (inactive) with ACHN; 16.9 µM (inactive) in the assay with CAKI-1; 17.4 µM (inactive) with EKVX; 17.7 µM (inactive) in the assay on HL-60; 19.7 µM (inactive) in the assay on KM12. Further, the GI50 in the assay with LOX IMVI is 18.5 µM (inactive); in the assay with MCF7 it was 24 µM (inactive); with MOLT-4 it was 19 µM (inactive); in the assay with NCI-H226 it was 23.8 µM (inactive); in the assay on NCI-H460 it was 15.3 µM (inactive); in the assay with OVCAR-3 it was 16.1 µM (inactive). The GI50 in the assay with SK-MEL-28 is 16.9 µM (inactive); with SK-MEL-5, 17.2 µM (inactive); in the assay with SW-620, 14.1 µM (inactive); in the assay with UACC-257, 19.4 µM (inactive).
As to `Cc1cc(NC2=NCCO2)c2c(c1C)CCCC2`, the GI50 in the assay on A549 was 29.6 µM (inactive); in the assay with ACHN, 10.1 µM (inactive); with COLO 205, 17.1 µM (inactive); in the assay on EKVX it was 23.6 µM (inactive); in the assay with HL-60, 10.6 µM (inactive); in the assay on KM12 it was 13.2 µM (inactive). Moreover, the GI50 with MCF7 was 14.8 µM (inactive); in the assay with MOLT-4, 17.4 µM (inactive); in the assay on NCI-H226, 1.27 µM (inactive); in the assay on NCI-H460 it was 11.7 µM (inactive); in the assay on SF-268, 18.9 µM (inactive); in the assay with SF-539, 0.0536 µM (active). Further, the GI50 in the assay on SK-MEL-28 was 15.4 µM (inactive); in the assay with SK-MEL-5, 15.7 µM (inactive); in the assay on SW-620, 27.1 µM (inactive); in the assay with UACC-257 it was 9.33 µM (inactive).
Turning to `O=C(O)Cc1cccc2c(=O)c3cccc([N+](=O)[O-])c3[nH]c12`, the GI50 with A549 is > 100 µM (inactive); in the assay with ACHN, > 100 µM (inactive); in the assay with CAKI-1, > 100 µM (inactive); with COLO 205, 20.7 µM (inactive); in the assay on HL-60, > 100 µM (inactive); in the assay with KM12, 85.1 µM (inactive). In addition, the GI50 with LOX IMVI is 48.2 µM (inactive); in the assay with MCF7 it was 80.9 µM (inactive); with MOLT-4, > 100 µM (inactive); in the assay with NCI-H460, > 100 µM (inactive); in the assay with NCI-H522 it was 63.2 µM (inactive); in the assay with OVCAR-3, 99.8 µM (inactive). Further, the GI50 was 29.7 µM (inactive) in the assay with SF-539, 44.7 µM (inactive) with SK-MEL-5, > 100 µM (inactive) in the assay on SW-620 and > 100 µM (inactive) in the assay on UACC-257.
Regarding `O=c1cccc2n1C[C@H]1CNC[C@H]2C1`, the GI50 in the assay on A549, with ACHN, with CAKI-1, with COLO 205, with EKVX and in the assay with HL-60 was > 100 µM (inactive) each time. The GI50 with KM12, with LOX IMVI, with MCF7, in the assay on MOLT-4, with NCI-H226 and in the assay with NCI-H460 was > 100 µM (inactive) each time. Besides, the GI50 with OVCAR-3, in the assay with SF-268, in the assay on SF-539, in the assay with SK-MEL-28, in the assay on SK-MEL-5 and with SW-620 was > 100 µM (inactive) in each case. Further, the GI50 with UACC-257 is > 100 µM (inactive).
`CCCCN=C(OC1C=CCCC1)SC` (stereo not drawn): the GI50 in the assay on A549, in the assay on ACHN, with COLO 205, with EKVX, with HL-60 and in the assay on MCF7 was > 100 µM (inactive) in each case. In addition, the GI50 in the assay with MOLT-4 is > 100 µM (inactive); in the assay with NCI-H226, > 100 µM (inactive); in the assay with NCI-H460, > 10 µM (inactive); in the assay on OVCAR-3, > 100 µM (inactive); with SF-268 it was > 100 µM (inactive); in the assay on SK-MEL-28 it was > 100 µM (inactive). Further, the GI50 with SK-MEL-5, in the assay on SW-620 and in the assay on UACC-257 was > 100 µM (inactive) each time.
